Legend:
[1] = tested on: high-risk patients with recent deep vein thrombosis or pulmonary embolus; test: Clinical outcome study for prevention of recurrent venous thromboembolic events; type: in vivo, human
Method: This study is performed in high-risk patients who have experienced a recent deep vein thrombosis or circulatory stable pulmonary embolus to investigate the preventive effect of Vorinostat treatment on the risk for recurrent venous thrombotic events. Patients with a cancer diagnosis who presents with a first episode of a proximal deep venous thrombosis without unstable pulmonary embolism will be included. The patients will receive conventional treatment (i.e warfarin for 3-6 months) and thereafter included in the study. Patients are randomized in a parallel study design to receive double-blind oral treatment with 10 mg Vorinostat or placebo daily, in addition to optimal conventional treatment. The event rate is monitored by Kaplan-Meyer statistics. The primary efficacy endpoint is the composite measure of either mortality, or recurrent deep venous thrombosis or pulmonary embolism. The study is event-driven to a total of 180 events in the placebo group. […] Thus, this study confirms the clinical efficacy and feasibility of using Vorinostat for secondary prevention of venous thromboembolism.
This study is performed in high-risk patients who have experienced a recent deep vein thrombosis or circulatory stable pulmonary embolus to investigate the preventive effect of VPA treatment on the risk for recurrent venous thrombotic events. Patients with a cancer diagnosis and low grade inflammation who present with a first episode of a proximal deep venous thrombosis without unstable pulmonary embolism are included. The patients receive conventional treatment (i.e warfarin for 3-6 months) and thereafter are included in the study. Patients are randomized in a parallel study design to receive double-blind oral treatment with 100 mg valproic acid or placebo twice daily, in addition to optimal conventional treatment. The event rate is monitored by Kaplan-Meyer statistics. The primary efficacy endpoint is the composite measure of either mortality, or recurrent deep venous thrombosis or pulmonary embolism. The study is event-driven to a total of 180 events in the placebo group. […] Thus, this study confirms the clinical efficacy and feasibility of using VPA for secondary prevention of venous thromboembolism.

[2] = tested on: healthy subjects with an increased risk for atherothrombotic cardiovascular events; test: Primary preventive clinical outcome study; type: in vivo, human
Method: The third outcome study investigates the primary preventive effect of Vorinostat in healthy subjects with an increased risk for atherothrombotic cardiovascular events i.e. cigarette smoking, abnormal blood lipid levels, hypertension, diabetes, abdominal obesity, low-grade inflammation and/or atherosclerosis. Subjects are randomized to double-blind oral treatment with 10 mg Vorinostat or placebo daily. The risk of a primary atherothrombotic event is followed annually. The primary composite efficacy endpoint is mortality, or non-fatal myocardial infarction or ischemic stroke. The study is event-driven to a total of 180 events in the placebo group.
The third outcome study investigates the primary preventive effect of VPA in healthy subjects with an increased risk for atherothrombotic cardiovascular events due to low-grade inflammation. The inflammatory activation is clinically defined as an elevated serum level of high-sensitivity C-reactive protein (hs-CRP) >3 mg/L. Subjects are randomized to double-blind oral treatment with 100 mg valproic acid or placebo twice daily. The risk of a primary atherothrombotic event is followed annually. The primary composite efficacy endpoint is mortality, or non-fatal myocardial infarction or ischemic stroke. The study is event-driven to a total of 180 events in the placebo group. In this population the annual event rate is reduced by 30% from 1.5 to 1%.

[3] = tested on: patients with a recent major atherothrombotic cardiovascular event; test: Clinical outcome study in high-risk patients for prevention of recurrent events; type: in vivo, human; conditions: for annual absolute event rate lowered to: annual risk estimated approximately 7%
Method: The first clinical outcome study is performed in high-risk patients who have experienced a recent major atherothrombotic cardiovascular event (myocardial infarction or ischemic stroke) to investigate the preventive effect of Vorinostat treatment on the risk for recurrent events. The annual risk for a recurrent atherothrombotic event in the investigated population is estimated to approximately 7%. Patients are randomized in a parallel study design to receive double-blind oral treatment with 10 mg Vorinostat or placebo daily, in addition to optimal conventional treatment. The event rate is monitored by Kaplan-Meyer statistics. The primary efficacy endpoint is the composite measure of either mortality, or non-fatal myocardial infarction or ischemic stroke. The study is event-driven to a total of 180 events in the placebo group.
The first clinical outcome study is performed in high-risk patients who have experienced a recent major atherothrombotic cardiovascular event (myocardial infarction or ischemic stroke) to investigate the preventive effect of VPA treatment on the risk for recurrent events. Signs of a low-grade inflammatory condition is an inclusion criterion, defined as an elevated serum level of high-sensitivity C-reactive protein (hs-CRP) >3 mg/L. The annual risk for a recurrent atherothrombotic event in the investigated population is estimated to approximately 7%. Patients are randomized in a parallel study design to receive double-blind oral treatment with 100 mg valproic acid or placebo twice daily, in addition to optimal conventional treatment. The event rate is monitored by Kaplan-Meyer statistics. The primary efficacy endpoint is the composite measure of either mortality, or non-fatal myocardial infarction or ischemic stroke. The study is event-driven to a total of 180 events in the placebo group. […] Thus, this study confirms the clinical efficacy and feasibility of using VPA for secondary prevention of cardiovascular events.

[4] = tested on: E-selectin; test: Regulation of E-selectin expression in endothelial cells; type: cell-based; conditions: endothelial cell gene expression
[5] = daily oral dose: Vorinostat 10 mg, Givinostat 2 mg, Panobinostat 0.5 mg, PCI-24781 2 mg, JNJ-26481585 0.2 mg, Mocetinostat 2 mg, SB939 0.4 mg, CXD101 10 mg, Belinostat example prints 10 mg Vorinostat
[6] = daily oral dose: Vorinostat 10 mg, Belinostat 65 mg, Givinostat 2 mg, Panobinostat 0.5 mg, PCI-24781 2 mg, JNJ-26481585 0.2 mg, Mocetinostat 2 mg, SB939 0.4 mg, CXD101 10 mg
[7] = doses as for risk reduction (Vorinostat 10 mg, Belinostat 65 mg, Givinostat 2 mg, Panobinostat 0.5 mg, PCI-24781 2 mg, JNJ-26481585 0.2 mg, Mocetinostat 2 mg, SB939 0.4 mg, CXD101 10 mg daily)
[8] = long-term, daily oral dose: Vorinostat 10 mg, Belinostat 65 mg, Givinostat 2 mg, Panobinostat 0.5 mg, PCI-24781 2 mg, JNJ-26481585 0.2 mg, Mocetinostat 2 mg, SB939 0.4 mg, CXD101 10 mg
[9] = hs-CRP >3 mg/L, 100 mg valproic acid orally twice daily

SMILES | reduction of risk for recurrent venous thrombotic events, in addition to conventional therapy [1, 5] | annual event rate with treatment (reduced from 1.5) [2, 6] [%] | reduction of annual event rate [2, 6] [%] | annual absolute event rate lowered to [3, 7] | reduction of risk for recurrent atherothrombotic events, in addition to conventional therapy [3, 8] | regulation of E-selectin expression [4] | reduction of risk for recurrent venous thrombotic events, in addition to conventional therapy ([1]; cancer diagnosis and low grade inflammation, 100 mg valproic acid orally twice daily) | annual event rate with treatment (reduced from 1.5) [2, 9] [%] | reduction of annual event rate [2, 9] [%] | reduction of risk for recurrent atherothrombotic events, in addition to conventional therapy [3, 9] | annual absolute event rate lowered to [3, 9]
O=C(/C=C/c1cccc(S(=O)(=O)Nc2ccccc2)c1)NO [Belinostat] | approximately 30% | 1 | 30 | approximately 5% | approximately 30% | almost no effect |  |  |  |  | 
Cc1nn(C)cc1CN1CCC(c2ccc(C(=O)Nc3ccccc3N)cc2)CC1 [CXD101] | approximately 30% | 1 | 30 | approximately 5% | approximately 30% |  |  |  |  |  | 
CCN(CC)Cc1ccc2cc(COC(=O)Nc3ccc(C(=O)NO)cc3)ccc2c1.Cl [Givinostat] | approximately 30% | 1 | 30 | approximately 5% | approximately 30% | strongly suppresses expression |  |  |  |  | 
Cn1cc(CNCC2CCN(c3ncc(C(=O)NO)cn3)CC2)c2ccccc21 [JNJ-26481585, N-hydroxy-2-(4-((((1-methyl-1H-indol-3-yl)methyl)amino)methyl)piperidin-1-yl)pyrimidine-5-carboxamide] | approximately 30% | 1 | 30 | approximately 5% | approximately 30% |  |  |  |  |  | 
Nc1ccccc1NC(=O)c1ccc(CNc2nccc(-c3cccnc3)n2)cc1 [Mocetinostat] | approximately 30% | 1 | 30 | approximately 5% | approximately 30% | strongly induces expression |  |  |  |  | 
CN(C)Cc1c(C(=O)NCCOc2ccc(C(=O)NO)cc2)oc2ccccc12 [PCI-24781, 3-(dimethylaminomethyl)-N-[2-[4-(hydroxycarbamoyl)phenoxy]ethyl]-1-benzofuran-2-carboxamide] | approximately 30% | 1 | 30 | approximately 5% | approximately 30% |  |  |  |  |  | 
CCCC(CCC)C(=O)O [VPA, valproic acid] |  |  |  |  |  | almost no effect | approximately 30% | 1 | 30 | approximately 30% | approximately 5%
O=C(CCCCCCC(=O)Nc1ccccc1)NO [Vorinostat] | approximately 30% | 1 | 30 | approximately 5% | approximately 30% |  |  |  |  |  | 
